Test results published in patent US20090111801A1, “SUBSTITUTED PYRAZINONE DERIVATIVES FOR USE AS A MEDICINE” (Janssen Pharmaceutica N.V., priority 2006, published 2009).

Columns and labels:
5HT-Transporter = target: T1, 5HT-Transporter (Homo sapiens, UniProt P31645); assay: Binding experiment for the 5HT-transporter ([3H]paroxetine, human platelet membranes); details: [3H]paroxetine 0.5 nM; for IC50: read-out: h-5HTT pIC50 (converted)
T1 construct: Human platelet membranes (Oceanix Biosciences Corporation, Hanover, Md., USA) were thawed; tissue Oceanix Biosciences Corporation, Hanover, Md., USA; host or cells: human platelet membranes
T1 sequence (P31645 whole entry): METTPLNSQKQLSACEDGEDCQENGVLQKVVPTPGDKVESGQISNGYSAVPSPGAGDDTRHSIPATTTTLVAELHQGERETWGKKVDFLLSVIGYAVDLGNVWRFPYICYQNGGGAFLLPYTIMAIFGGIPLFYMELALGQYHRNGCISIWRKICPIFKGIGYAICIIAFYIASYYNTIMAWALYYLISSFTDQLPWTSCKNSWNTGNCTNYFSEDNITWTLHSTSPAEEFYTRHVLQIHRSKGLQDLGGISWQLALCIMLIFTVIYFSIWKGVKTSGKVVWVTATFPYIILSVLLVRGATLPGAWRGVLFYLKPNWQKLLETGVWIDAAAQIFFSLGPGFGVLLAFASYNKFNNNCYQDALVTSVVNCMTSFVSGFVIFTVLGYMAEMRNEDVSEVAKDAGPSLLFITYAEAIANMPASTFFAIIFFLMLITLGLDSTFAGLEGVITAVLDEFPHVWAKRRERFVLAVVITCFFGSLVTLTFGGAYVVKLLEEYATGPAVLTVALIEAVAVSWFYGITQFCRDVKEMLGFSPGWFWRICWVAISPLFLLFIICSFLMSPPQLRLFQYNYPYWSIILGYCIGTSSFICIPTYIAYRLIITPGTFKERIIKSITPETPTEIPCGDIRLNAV
Description: (§1) The interaction of a compound of Formula (I) with α2-adrenoceptor receptors was assessed in in vitro radioligand binding experiments. In general, a low concentration of a radioligand with a high binding affinity for a particular receptor or transporter is incubated with a sample of a tissue preparation enriched in a particular receptor or transporter or with a preparation of cells expressing cloned human receptors in a buffered medium. During the incubation, the radioligand binds to the receptor or transporter. When equilibrium of binding is reached, the receptor bound radioactivity is separated from the non-bound radioactivity, and the receptor- or transporter-bound activity is counted. The interaction of the test compounds with the receptor is assessed in competition binding experiments. Various concentrations of the test compound are added to the incubation mixture containing the receptor- or transporter preparation and the radioligand. The test compound in proportion to its binding affinity and its concentration inhibits binding of the radioligand. The radioligand used for hα2A and hα2C receptor binding was [^3H]-raulwolscine.
Human platelet membranes (Oceanix Biosciences Corporation, Hanover, Md., USA) were thawed, diluted in buffer (Tris-HCl 50 mM, 120 mM NaCl and 5 mM KCl) and quickly (max 3 s) homogenised with an Ultraturrax homogenizer. […] Incubation was stopped by rapid filtration of the incubation mixture over GF/B filters, pre-wetted with 0.1% polyethyleneamine, using a Filtermate196 harvester (Packard, Meriden, Conn.). Filters were rinsed extensively with ice-cold buffer and radioactivity on the filters was counted in a Topcount liquid scintillation counter (Packard, Meriden, Conn.). Data were expressed as cpm. Imipramine (at 1 μM final concentration) was used to determine the non-specific binding.
(§2) Data from assays in the presence of compound were calculated as a percentage of total binding measured in the absence of test compound. Inhibition curves, plotting percent of total binding versus the log value of the concentration of the test compound, were automatically generated, and sigmoidal inhibition curves were fitted using non-linear regression. The pIC50 values of test compounds were derived from individual curves.

hα2C receptor = target: T2, hα2C receptor (Homo sapiens, UniProt P18825); assay: Radioligand binding experiment for α2C-adrenoceptor ([3H]raulwolscine, CHO cell membranes); details: [3H]raulwolscine binding; for IC50: read-out: h-α2C pIC50 (converted)
T2 construct: expressed in transfected cells; host or cells: CHO cells, stably transfected; membrane preparation
T2 sequence (P18825 1-462): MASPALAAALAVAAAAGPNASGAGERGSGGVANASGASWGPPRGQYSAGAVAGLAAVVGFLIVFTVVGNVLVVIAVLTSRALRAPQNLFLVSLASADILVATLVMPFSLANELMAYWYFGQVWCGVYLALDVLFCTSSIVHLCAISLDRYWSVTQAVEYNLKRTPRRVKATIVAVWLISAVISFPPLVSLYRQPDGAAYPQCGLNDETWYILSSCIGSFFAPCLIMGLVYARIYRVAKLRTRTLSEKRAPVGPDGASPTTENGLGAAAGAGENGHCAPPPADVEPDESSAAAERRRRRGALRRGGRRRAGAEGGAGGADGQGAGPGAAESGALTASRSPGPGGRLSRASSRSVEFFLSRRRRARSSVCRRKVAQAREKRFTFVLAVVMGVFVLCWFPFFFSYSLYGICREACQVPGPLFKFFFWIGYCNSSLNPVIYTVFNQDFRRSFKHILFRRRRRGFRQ
Description: as §1
(§3) CHO cells, stabile transfected with human adrenergic-α2A and α2C receptor cDNA, were cultured in Dulbecco's Modified Eagle's Medium (DMEM)/Nutrient mixture Ham's F12 (ratio 1:1)(Gibco, Gent-Belgium) supplemented with 10% heat inactivated fetal calf serum (Life Technologies, Merelbeke-Belgium) and antibiotics (100 IU/ml penicillin G, 100 μg/ml streptomycin sulphate, 110 μg/ml pyruvic acid and 100 μg/ml L-glutamine). One day before collection, cells were induced with 5 mM sodiumbutyrate. Upon 80-90% of confluence, cells were scraped in phosphate buffered saline without Ca^2+ and Mg^2+ and collected by centrifugation at 1500×g for 10 minutes. The cells were homogenised in Tris-HCl 50 mM using an Ultraturrax homogenizer and centrifuged for 10 minutes at 23,500×g. The pellet was washed once by resuspension and rehomogenization and the final pellet was resuspended in Tris-HCl, divided in 1 ml aliquots and stored at −70° C.
(§4) Membranes were thawed and re-homogenized in incubation buffer (glycylglycine 25 mM, pH 8.0). […] Filters were rinsed extensively with ice-cold rinsing buffer (Tris-HCl 50 mM pH 7.4). Filter-bound radioactivity was determined by scintillation counting in a Topcount (Packard, Meriden, Conn.) and results were expressed as counts per minute (cpm). Non-specific binding was determined in the presence of 1 μM oxymetazoline for the hα2A receptor and 1 μM spiroxatrine for hα2C receptor.
as §2

hα2A receptor = target: T3, hα2A receptor (Homo sapiens, UniProt P08913); assay: Radioligand binding experiment for α2A-adrenoceptor ([3H]raulwolscine, CHO cell membranes); details: [3H]raulwolscine binding; for IC50: read-out: h-α2A pIC50 (converted)
T3 construct: expressed in transfected cells; host or cells: CHO cells, stably transfected; membrane preparation
T3 sequence (P08913 1-465): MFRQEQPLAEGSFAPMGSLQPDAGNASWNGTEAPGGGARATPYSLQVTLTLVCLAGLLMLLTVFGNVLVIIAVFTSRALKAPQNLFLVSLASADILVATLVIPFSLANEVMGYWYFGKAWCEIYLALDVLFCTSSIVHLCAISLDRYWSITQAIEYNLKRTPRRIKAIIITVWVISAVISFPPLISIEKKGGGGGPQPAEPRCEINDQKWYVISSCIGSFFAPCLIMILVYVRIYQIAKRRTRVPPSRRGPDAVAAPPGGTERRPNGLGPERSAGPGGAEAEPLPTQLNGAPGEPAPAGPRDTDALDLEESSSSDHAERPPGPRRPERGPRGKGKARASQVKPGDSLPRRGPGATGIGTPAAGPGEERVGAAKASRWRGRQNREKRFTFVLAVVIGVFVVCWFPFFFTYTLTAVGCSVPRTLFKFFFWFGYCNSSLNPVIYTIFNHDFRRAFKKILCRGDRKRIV
Description: as §1, §3, §4, §2

| IC50 (5HT-Transporter) | IC50 (hα2C receptor) | IC50 (hα2A receptor) | h-5HTT pIC50 (5HT-Transporter) | h-α2C pIC50 (hα2C receptor) | h-α2A pIC50 (hα2A receptor) | Compound |
| --- | --- | --- | --- | --- | --- | --- |
| 1260 nM | 63.1 nM | 158 nM | – | – | – | C/C(=C\c1ccccc1)CN1CCC(Nc2nccn(Cc3ccc(F)cc3)c2=O)CC1 [5-13] |
| 1260 nM | 5.01 nM | 31.6 nM | – | – | – | C/C(=C\c1ccccc1)CN1CCC(Nc2nccn(-c3ccccc3)c2=O)CC1 [5-1] |
| 316 nM | 200 nM | 1000 nM | – | – | – | C/C(=C\c1ccccc1)CN1CCC(Nc2nc(Cl)c(-c3cccc(Br)c3)[nH]c2=O)CC1 [17-1] |
| 631 nM | 158 nM | 794 nM | – | – | – | CCOC(=O)CCCCn1ccnc(NC2CCN(C/C=C/c3ccccc3)CC2)c1=O [16-11] |
| > 10000 nM | 158 nM | 1580 nM | – | – | – | C/C(=C\c1ccccc1)CN1CCN(c2nccn(CC(=O)N(C)C)c2=O)CC1 [8-2] |
| – | 5.01 nM | 25.1 nM | – | – | – | C/C(=C\c1ccccc1)CN1CCC(Nc2nccn(-c3ccccn3)c2=O)CC1 [6-9] |
| – | 63.1 nM | 501 nM | – | – | – | CN(C)CCCn1ccnc(NC2CCN(C/C=C/c3ccccc3)CC2)c1=O [16-2] |
| – | 12.6 nM | 50.1 nM | – | – | – | CC(=O)Cn1ccnc(NC2CCN(C/C(C)=C/c3ccccc3)CC2)c1=O [7-7] |
| – | 31.6 nM | 100 nM | – | – | – | C/C(=C\c1ccccc1)CN1CCC(Nc2ncc[nH]c2=O)CC1 [7-1] |
| – | 3.16 nM | 12.6 nM | – | – | – | C/C(=C\c1ccccc1)CN1CCC(Nc2nccn(-c3ccccn3)c2=O)CC1 [6-10] |
| – | 251 nM | 2000 nM | – | – | – | C/C(=C\c1ccccc1)CN1CCN(c2nccn(CCCN3CCCC3=O)c2=O)CC1 [9-1] |

Further lines, the compound ahead of its results:

| Compound | IC50 (5HT-Transporter) | IC50 (hα2C receptor) | IC50 (hα2A receptor) | h-5HTT pIC50 (5HT-Transporter) | h-α2C pIC50 (hα2C receptor) | h-α2A pIC50 (hα2A receptor) |
| --- | --- | --- | --- | --- | --- | --- |
| C/C(=C\c1ccccc1)CN1CCC(Nc2nccn(CCCN(C)C(=O)c3ccc(F)cc3)c2=O)CC1 [1-79] | > 10000 nM | 39.8 nM | 2000 nM | – | – | – |
| COc1ccc(Cn2ccnc(NC3CCN(C/C(C)=C/c4ccccc4)CC3)c2=O)cc1 [3-11] | 501 nM | 31.6 nM | 20 nM | – | – | – |
| C/C(=C\c1ccccc1)CN1CCC(Nc2nccn(CCCN(Cc3ccccc3)C(=O)Nc3ccccc3)c2=O)CC1 [1-123] | 631 nM | 12.6 nM | 158 nM | – | – | – |
| C/C(=C\c1ccccc1)CN1CCC(Nc2nccn(-c3ccc(NCc4ccccc4)cc3)c2=O)CC1 [1-50] | 631 nM | 3.16 nM | 100 nM | – | – | – |
| C/C(=C\c1ccccc1)CN1CCC(N(C)c2nccn(Cc3ccc(CN)cc3)c2=O)CC1 [15-1] | 501 nM | 10 nM | 25.1 nM | – | – | – |
| C/C(=C\c1ccccc1)CN1CCC(Nc2nccn(CC(=O)NCCCN3CCCC3=O)c2=O)CC1 [1-132] | 2510 nM | 12.6 nM | 316 nM | – | – | – |
| C/C(=C\c1ccccc1)CN1CCC(Nc2nccn(-c3cccc(Nc4ccc(F)cc4)c3)c2=O)CC1 [1-43] | 50.1 nM | 3.16 nM | 12.6 nM | – | – | – |
| CCOC(=O)N1CCC(NCc2cccc(-n3ccnc(NC4CCN(C/C(C)=C/c5ccccc5)CC4)c3=O)c2)CC1 [1-127] | – | – | – | 5.5 | 8.0 | 7.3 |
| C/C(=C\c1ccccc1)CN1CCC(N(C)c2nccn(CCCO)c2=O)CC1 [15-4] | 2510 nM | 39.8 nM | 63.1 nM | – | – | – |
| CCCNC(=O)Cn1ccnc(NC2CCN(C/C(C)=C/c3ccccc3)CC2)c1=O [1-10] | 2000 nM | 10 nM | 126 nM | – | – | – |
| C/C(=C\c1ccccc1)CN1CCC(Nc2nccn(CCCN(Cc3ccccc3)S(=O)(=O)c3ccccc3)c2=O)CC1 [1-170] | 251 nM | 12.6 nM | 200 nM | – | – | – |
| COCCNC(=O)c1ccc(-n2ccnc(NC3CCN(C/C(C)=C/c4ccccc4)CC3)c2=O)cc1 [1-22] | 631 nM | 12.6 nM | 100 nM | – | – | – |
| CC(=O)Nc1ccc(S(=O)(=O)NCc2ccc(Cn3ccnc(NC4CCN(C/C(C)=C/c5ccccc5)CC4)c3=O)cc2)cc1 [1-164] | 501 nM | 20 nM | 158 nM | – | – | – |
| C/C(=C\c1ccccc1)CN1CCC(Nc2nccn(-c3ccc(N4CCCCC4)cc3)c2=O)CC1 [2-7] | 1260 nM | 5.01 nM | 50.1 nM | – | – | – |
| COCCN(C)Cc1cccc(-n2ccnc(NC3CCN(C/C(C)=C/c4ccccc4)CC3)c2=O)c1 [1-25] | 1580 nM | 1 nM | 5.01 nM | – | – | – |
| COC(=O)CCNC(=O)Cn1ccnc(NC2CCN(C/C(C)=C/c3ccccc3)CC2)c1=O [1-94] | 2510 nM | 3.98 nM | 158 nM | – | – | – |
| C/C(=C\c1ccccc1)CN1CCC(Nc2nccn(C/C=C/CN3C(=O)c4ccccc4C3=O)c2=O)CC1 [2-52] | 31.6 nM | 2 nM | 50.1 nM | – | – | – |
| C/C(=C\c1ccccc1)CN1CCC(Nc2nccn(Cc3ccc(CNS(=O)(=O)c4ccc(F)cc4)cc3)c2=O)CC1 [1-162] | 316 nM | 20 nM | 100 nM | – | – | – |
| C/C(=C\c1ccccc1)CN1CCC(Nc2nccn(-c3cccc(NS(=O)(=O)Cc4ccccc4)c3)c2=O)CC1 [1-166] | 316 nM | 12.6 nM | 63.1 nM | – | – | – |
| C/C(=C\c1ccccc1)CN1CCC(Nc2nccn(Cc3ccc(CNS(=O)(=O)c4ccc(C#N)cc4)cc3)c2=O)CC1 [1-161] | 501 nM | 25.1 nM | 100 nM | – | – | – |
| C/C(=C\c1ccccc1)CN1CCC(Nc2nccn(-c3ccc(C(=O)N4CCOCC4)cc3)c2=O)CC1 [2-46] | 794 nM | 3.98 nM | 31.6 nM | – | – | – |
| C/C(=C\c1ccccc1)CN1CCC(Nc2nccn(CCN3CCCCC3)c2=O)CC1 [2-4] | 2510 nM | 3.16 nM | – | – | – | – |
| C/C(=C\c1ccccc1)CN1CCC(Nc2nccn(CCCNCc3ccccc3)c2=O)CC1 [1-46] | 316 nM | – | 39.8 nM | – | – | – |
| C/C(=C\c1ccccc1)CN1CCC(Nc2nccn(CCCN)c2=O)CC1 [1-2] | – | – | 39.8 nM | – | – | – |
| COCCn1ccnc(NC2CCN(C/C(C)=C/c3ccccc3)CC2)c1=O [3-5] | – | 39.8 nM | 316 nM | – | – | – |
| C/C(=C\c1ccccc1)CN1CCC(Nc2nccn(CCN3CCOCC3)c2=O)CC1 [2-40] | – | 25.1 nM | – | – | – | – |
| C/C(=C\c1ccccc1)CN1CCC(Nc2nccn(CCCNCc3ccccc3)c2=O)CC1 [1-47] | 501 nM | – | 25.1 nM | – | – | – |
